Test system: primary cultures of rat cortical neurons
Assay: Cell protective activity against glutamate induced-neurotoxicity (MTT assay)
Assay type: cell-based, Sprague-Dawley rats
Procedure: The extracts of Dioscorea opposita were suspended in DMSO (Sigma Co., Ltd) and diluted to the extent that the final concentration reaches to <0.1%. Each suspension was filtered with 0.22 μm membrane filter (Millipore Co., Ltd.) to sterilize. After the concentrations of each fractions were adjusted to 100 μg/ml and 10 μg/ml, The test samples with various final concentration of various fractions were named as follows: 100 μg/ml of hexane layer (H100), 10 μg/ml of hexane layer (H10), 100 μg/ml of water layer (W100), 10 μg/ml of water layer (W10), 100 μg/ml of ethyl-acetate layer (E100), 10 μg/ml of ethylacetate layer (E10), 100 μg/ml of chloroform layer (C100), 10 μg/ml of chloroform layer (C10), 100 μg/ml of butanol layer (B100), 10 μg/ml of butanol layer (B10) respectively. The cultured cell was pretreated with each test sample 1 hour before the glutamate treatment and the protective activity of D. opposita against the death of cerebral cortex cells was assessed.
The tested fractions were dissolved in DMSO and diluted to the extent that the final concentration reaches to <0.1%. The matured cerebral cortex cells for 15 days were pretreated with the test fractions for 1 hour and then exposed to 100 μM glutamate. After further incubation for 24 hour, the neuronal survival was quantified using by MTT assay, which yields blue formazan products in living cells.

For `C[C@]12N[C@H](Cc3ccccc31)c1ccccc12` [MK801], the “Protection activity (%)” value (MK801 positive control in Table 1, concentration not given) was 79% and the Relative protection (positive control at 10 μM, P<0.0001) was 80.6±1.6%.

— patent publication US7824718B2, “Extract of Dioscorea opposita thunb showing neuronal cell-protecting activity for treating memory loss” (Tong Yang Moolsan Co., Ltd., priority 2005, dated 2010)
